Measurements reported in EP1614683B1, “Indazole compounds and pharmaceutical compositions for inhibiting protein kinases, and methods for their use” (priority 1999, dated 2001).
Where “and” joins values, the source holds several entries; their conditions need not be identical. Equal values may be shown once. Read-outs that look alike come from different tables or passages of the source. Marks after values point to notes of the source that are not given here. Each block holds one compound with its values, some of them ahead of it.

Key:
human CHK1 (FL-CHK1) = biological target: T1, human CHK1 (FL-CHK1) (Homo sapiens, UniProt O14757); assay: CHK1 coupled spectrophotometric assay; format: biochemical
T1 construct: C-terminally His-tagged full-length human CHK1 (FL-CHK1) was expressed using the baculovirus/insect cell system; made in house; host or cells: baculovirus/insect cell system
T1 sequence (O14757 1-476): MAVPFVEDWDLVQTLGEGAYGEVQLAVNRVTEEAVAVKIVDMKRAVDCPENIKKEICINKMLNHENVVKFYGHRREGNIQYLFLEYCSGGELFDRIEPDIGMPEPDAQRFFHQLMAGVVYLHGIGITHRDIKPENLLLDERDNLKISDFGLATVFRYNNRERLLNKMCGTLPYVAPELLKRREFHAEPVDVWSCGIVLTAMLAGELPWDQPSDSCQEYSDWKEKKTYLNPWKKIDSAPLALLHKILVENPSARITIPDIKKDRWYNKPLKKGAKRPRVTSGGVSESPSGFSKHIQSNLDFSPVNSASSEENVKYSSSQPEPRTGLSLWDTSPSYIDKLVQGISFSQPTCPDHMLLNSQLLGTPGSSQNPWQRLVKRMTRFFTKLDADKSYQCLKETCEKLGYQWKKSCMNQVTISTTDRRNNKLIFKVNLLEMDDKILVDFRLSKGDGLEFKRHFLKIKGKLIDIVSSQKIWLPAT
Excerpt: CHK1 Construct for Assay: C-terminally His-tagged full-length human CHK1 (FL-CHK1) was expressed using the baculovirus/insect cell system. […] The protein was purified by conventional chromatographic techniques.
The production of ADP from ATP that accompanies phosphoryl transfer to the synthetic substrate peptide Syntide-2 ([…]) was coupled to oxidation of NADH using phosphoenolpyruvate (PEP) through the actions of pyruvate kinase (PK) and lactic dehydrogenase (LDH). The oxidation of NADH was monitored by following the decrease of absorbance at 340 nm (∈340 = 6.22 cm^-1 mM^-1) using a HP8452 spectrophotometer. […] Assays were initiated with 10 nM of FL-CHK1. Ki values were determined by measuring initial enzyme activity in the presence of varying concentrations of test compounds. The data were analyzed using Enzyme Kinetic and Kaleidagraph software.

human FGF-R1 = human FGF-R1 (Homo sapiens, UniProt P11362, C488A/C584S/L457V); assay: FGF-R spectrophotometric assay; format: biochemical; conditions: Table 1, compound concentration 1 µM; for inhibition at 1 µM: read-out: FGF-P* (% inhibition); for FGF-P* (% inhibition): 1 µM
human FGF-R1, sequence (P11362 456-766 L457V/C488A/C584S): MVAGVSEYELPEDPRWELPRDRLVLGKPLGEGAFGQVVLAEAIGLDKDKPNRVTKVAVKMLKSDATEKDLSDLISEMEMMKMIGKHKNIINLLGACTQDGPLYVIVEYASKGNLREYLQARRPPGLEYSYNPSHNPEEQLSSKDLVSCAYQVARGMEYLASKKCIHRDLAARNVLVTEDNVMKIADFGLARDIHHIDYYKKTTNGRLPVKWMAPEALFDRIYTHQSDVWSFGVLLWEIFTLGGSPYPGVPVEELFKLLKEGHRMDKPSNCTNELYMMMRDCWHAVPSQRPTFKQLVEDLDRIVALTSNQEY
Experimental: The spectrophotometric assay was carried out as described above for VEGF-R2, except for the following changes in concentration: FGF-R = 50 nM, ATP = 2 mM, and poly(E4Y1) =15 mM.

LCK tyrosine kinase = LCK tyrosine kinase (Homo sapiens, UniProt P06239, C224D/P223M); assay: LCK spectrophotometric assay; format: biochemical; conditions: Table 1, compound concentration 1 µM; for inhibition at 1 µM: read-out: Lck-P* (% inhibition); for Lck-P* (% inhibition): 1 µM
LCK tyrosine kinase, sequence (P06239 223-509 P223M/C224D): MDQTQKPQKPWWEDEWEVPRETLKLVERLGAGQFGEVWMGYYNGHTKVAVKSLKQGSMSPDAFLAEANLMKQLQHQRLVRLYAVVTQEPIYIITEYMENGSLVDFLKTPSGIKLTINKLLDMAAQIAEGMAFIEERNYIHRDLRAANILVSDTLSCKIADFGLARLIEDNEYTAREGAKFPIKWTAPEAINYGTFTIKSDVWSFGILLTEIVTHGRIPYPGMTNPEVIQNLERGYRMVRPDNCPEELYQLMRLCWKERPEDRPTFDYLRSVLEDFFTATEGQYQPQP
Experimental: The spectrophotometric assay was carried out as described above for VEGF-R2, except for the following changes in concentration: LCK = 60 nM, MgCl2 = 0 mM, poly(E4Y1) = 20 mM.

[1] = system: human umbilical vein endothelial cells (HUVEC); assay: HUVEC proliferation assay (VEGF-stimulated, MTT); format: cell-based; conditions: Homo sapiens, HUVEC, Table 1
in vitro = in vitro ADME, human; conditions: human liver microsomes, 5 µM test compound, 37 °C, 2 h; for remaining at 2 h, 5 µM: read-out: % remain (HLM, 2 h)
Outline: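 HLM diluted to 5 mg/mL in 100 mM KPO4, preincubated 10 min at 37 °C with NADPH-regenerating system. Compound (5 µM final) incubated at 37 °C in triplicate, sampled at 0 and 2 h into ice-cold acetonitrile, then LC-MS analysis.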

in vivo = conditions: mouse, plasma, pH 2.3
[2] = biological target: unphosphorylated VEGF-R2Δ50 (Homo sapiens, UniProt P35968, DEL940-989/E990V); assay: biochemical; conditions: for inhibition at 0.05 µM: read-out: FLVK ** (% inhibition)
unphosphorylated VEGF-R2Δ50, sequence (P35968 with tags, fused parts or gaps DEL940-989/E990V limits assumed): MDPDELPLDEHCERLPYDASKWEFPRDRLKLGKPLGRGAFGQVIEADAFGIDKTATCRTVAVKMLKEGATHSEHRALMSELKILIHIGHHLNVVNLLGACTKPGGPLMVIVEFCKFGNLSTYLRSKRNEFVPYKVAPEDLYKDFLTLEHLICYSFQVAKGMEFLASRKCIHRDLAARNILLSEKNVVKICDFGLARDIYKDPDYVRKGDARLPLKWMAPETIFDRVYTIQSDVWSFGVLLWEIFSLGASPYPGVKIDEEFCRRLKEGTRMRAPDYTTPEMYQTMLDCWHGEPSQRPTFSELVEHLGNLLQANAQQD

[3] = + albumin, read-out: HUVEC + albumin IC50
[4] = PO, 25 mg/kg, vehicle PEG400:H2O pH 2.3 30:70
[5] = PO, 50 mg/kg, vehicle PEG400:H2O pH 2.3 30:70
[6] = IP, 25 mg/kg, vehicle PEG400:H2O pH 2.3 30:70

Compound: 3-(1H-benzoimidazol-2-yl)-N-(4-hydroxy-3-methylphenyl)-1H-indazole-6-carboxamide [Example 53(c)]
Ki (human CHK1 (FL-CHK1); Table 3, read-out: CHK-1* (Ki)): 1100 nM

Compound: Oc1ccc(-c2ccc3c(-c4cc5ccccc5o4)n[nH]c3c2)cc1OCc1ccccc1 [2(e), 3-(Benzofuran-2-yl)-6-(3-benzyloxy-4-hydroxy-phenyl)-1H-indazole]
inhibition at 20 µM (human CHK1 (FL-CHK1); read-out: CHK -1* (% inhibition @ 20 µM)): 5%

Compound: COCOc1ccc(Oc2ccc3c(/C=C/c4ccccc4)n[nH]c3c2)cc1 [8(b), 3-(E-styryl)-6-[4-(methoxymethoxy)phenoxy]-1H-indazole]
inhibition at 50 µM (human CHK1 (FL-CHK1); read-out: CHK-1* (% inhibition @ 50 µM)): 12%

Compound: O=C(Nc1cccc(C(=O)c2ccc3c(/C=C/c4ccccc4)n[nH]c3c2)c1)c1ccncc1 [19(j), 6-[3-(pyridin-4-ylcarboxamido)benzoyl]-3-E-styryl-1H-indazole]
inhibition at 1 µM (human FGF-R1): 44%
inhibition at 1 µM (LCK tyrosine kinase): 23%
IC50 [1, 3]: 50 nM
IC50 ([1]; read-out: HUVEC IC50): 2.2 nM
remaining at 2 h, 5 µM (in vitro): 66%
T1/2 (IP, 25 mg/kg, vehicle PEG400:H2O pH 2.3 60:40): 1.6 h
T1/2 (PO, 50 mg/kg, vehicle PEG400:H2O pH 2.3 60:40): 1.2 h
AUC (in vivo; ip, 25 mg/kg): 23200 ng·h/mL
AUC (in vivo; po, 50 mg/kg): 5890 ng·h/mL

Compound: O=C(NNc1ccccn1)c1ccccc1Sc1ccc2c(/C=C/c3ccccn3)n[nH]c2c1 [35 (n)]
T1/2 [4]: 1.4 h
AUC (in vivo; po, 25 mg/kg): 4820 ng·h/mL

Compound: CN(O)C(=O)c1ccccc1Sc1ccc2c(/C=C/c3ccccn3)n[nH]c2c1 [35 (o)]
Cmin (7 hr conc.) [4]: 3 ng/mL
T1/2 [4]: 1.0 h
AUC (in vivo; po, 25 mg/kg): 683 ng·h/mL

Compound: COc1cccc(C(=O)Nc2cccc(C(=O)c3ccc4c(/C=C/c5ccccn5)n[nH]c4c3)c2)c1 [41 (bb)]
T1/2 [5]: 2.0 h
AUC (in vivo; po, 50 mg/kg): 2180 ng·h/mL

Compound: CC(=O)Nc1cc(C(=O)c2ccc3c(/C=C/c4ccccn4)n[nH]c3c2)ccc1C [41 (gg)]
T1/2 [4]: 1.1 h
AUC (in vivo; po, 25 mg/kg): 2690 ng·h/mL

Compound: Cc1cc(C(=O)Nc2cc(C(=O)c3ccc4c(/C=C/c5ccccn5)n[nH]c4c3)ccc2C)n(C)n1 [41 (hh)]
AUC (in vivo; po, 25 mg/kg): 5600 ng·h/mL
half-life (in vivo; po, 25 mg/kg): 7.9 h

Compound: Cc1cc(C(=O)Nc2cc(C(=O)c3ccc4c(/C=C/c5ccccn5)n[nH]c4c3)c(C)cc2C)n(C)n1 [41 (mm)]
AUC (in vivo; po, 25 mg/kg): 2260 ng·h/mL
half-life (in vivo; po, 25 mg/kg): 2.5 h

Compound: Cn1nc(C(C)(C)C)cc1C(=O)Nc1cccc(C(=O)c2ccc3c(/C=C/c4ccccn4)n[nH]c3c2)c1 [41 (n)]
T1/2 [6]: 3.2 h
T1/2 [5]: 1.9 h
AUC (in vivo; ip, 25 mg/kg): 9410 ng·h/mL
AUC (in vivo; po, 50 mg/kg): 9070 ng·h/mL

Compound: Cc1cc(C(=O)Nc2cccc(C(=O)c3ccc4c(/C=C/c5ccccn5)n[nH]c4c3)c2)cc(Cl)n1 [41 (q)]
T1/2 [4]: 5.2 h
AUC (in vivo; ip, 25 mg/kg): > 27000 ng·h/mL

Compound: C=CCn1nc(C)cc1C(=O)Nc1cccc(C(=O)c2ccc3c(/C=C/c4ccccn4)n[nH]c3c2)c1 [41 (t)]
T1/2 [4]: 4.0 h
AUC (in vivo; po, 25 mg/kg): > 22500 ng·h/mL

Compound: COc1cc(C(=O)Nc2cccc(C(=O)c3ccc4c(/C=C/c5ccccn5)n[nH]c4c3)c2)cc(Cl)n1 [41 (u)]
T1/2 [4]: 5.6 h
AUC (in vivo; po, 25 mg/kg): 875 ng·h/mL

Compound: Cc1cc(C(=O)Nc2cccc(C(=O)c3ccc4c(/C=C/c5ccccn5)n[nH]c4c3)c2)n(C(C)C)n1 [41 (x)]
T1/2 [4]: 4.2 h
AUC (in vivo; po, 25 mg/kg): 24200 ng·h/mL

Compound: CN(c1ccccc1)c1ccc2c(/C=C/c3ccccc3)n[nH]c2c1 [Example 14, Methyl-phenyl-(3-styryl-1H-indazol-6-yl)-amine]
inhibition at 25 µM (human CHK1 (FL-CHK1); read-out: CHK -1* (% inhibition @ 25 µM)): 12%

CHK-1* (inhibition @ 100 µM) (human CHK1 (FL-CHK1); Table 3, @ 100 µM, NI = no significant inhibition): Nl @ 100 µM
Compound: Cc1c(O)ccc(NC(=O)c2ccc3c(-c4nc5ccccc5[nH]4)n[nH]c3c2)c1C [Example 53(d), 3-(1H-benzoimidazol-2-yl)-N-(4-hydroxy-2,3-dimethylphenyl)-1H-indazole-6-carboxamide]

Compound: CCn1nc(C)cc1C(=O)Nc1cccc(Oc2ccc3c(/C=C/c4cn(C)c(C)n4)n[nH]c3c2)c1 [Reference Example 31(f), 6-[3-((1-Ethyl-3-methyl-1H-pyrazol-5-yl)carboxamido)phenoxy]-3-E-[2-(1,2-dimethyl-1H-imidazol-4-yl)ethenyl]-1H-indazole]
inhibition at 1 µM (human FGF-R1): 99%
inhibition at 1 µM (LCK tyrosine kinase): 62%
IC50 [1, 3]: > 10 nM
T1/2 [4]: 2.6 h
AUC (in vivo; po, 25 mg/kg): > 245000 ng·h/mL
inhibition at 0.05 µM [2]: 97%

Compound: CCn1nc(C)cc1C(=O)Nc1cccc(Oc2ccc3c(/C=C/c4c[nH]cn4)n[nH]c3c2)c1 [Reference Example 32(b), 6-[3-((1-Ethyl-3-methyl-1H-pyrazol-5-yl)carboxamido)phenoxy]-3-E-[2-(1H-imidazol-4-yl)ethenyl]-1H-indazole]
inhibition at 1 µM (human FGF-R1): 95%
inhibition at 1 µM (LCK tyrosine kinase): 70%
IC50 [1, 3]: 21 nM
T1/2 [4]: 2.1 h
AUC (in vivo; po, 25 mg/kg): 490 ng·h/mL

Compound: CCn1nc(C)cc1C(=O)Nc1cccc(Oc2ccc3c(/C=C/c4c[nH]c(C)n4)n[nH]c3c2)c1 [Reference Example 32(c), 6-[3-((1-Ethyl-3-methyl-1H-pyrazol-5-yl)carboxamido)phenoxy]-3-E-[2-(2-methylimidazol-4-yl)ethenyl]-1H-indazole]
inhibition at 1 µM (human FGF-R1): 96%
inhibition at 1 µM (LCK tyrosine kinase): 52%
IC50 [1, 3]: > 30 nM
T1/2 [4]: 2.4 h
AUC (in vivo; po, 25 mg/kg): 388 ng·h/mL

Compound: O=C(Nc1ccccc1)c1ccccc1Sc1ccc2c(/C=C/c3ccccn3)n[nH]c2c1 [Reference Example 33(c), 6-[2-(phenylcarbamoyl)phenylsulfanyl]-3-E-[2-(pyrldin-2-yl)ethenyl]-1H-indazole]
inhibition at 1 µM (human FGF-R1): 76%
inhibition at 1 µM (LCK tyrosine kinase): 26%
IC50 [1, 3]: 6.6 nM
% remain (HLM, 2 h) (in vitro): 16%
Cmin (7 hr conc.) [6]: 7 ng/mL
T1/2 [6]: 1.2 h
Cmin (7 hr conc.) [5]: 5 ng/mL
T1/2 [5]: 3.0 h
AUC (in vivo; ip, 25 mg/kg): 697 ng·h/mL
AUC (in vivo; po, 50 mg/kg): 183 ng·h/mL

Compound: Cc1cc(C(=O)Nc2cccc(C(=O)c3ccc4c(/C=C/c5ccccn5)n[nH]c4c3)c2)nn1C [Reference Example 41(i), 6-[3-((1,5-dimethyl-1H-pyrazol-3-yl)carboxamido)benzoyl]-3-E-[2-(pyridin-2-yl)ethenyl]-1H-indazole]
FGF-P* (% inhibition) (human FGF-R1): 41%
FGF-P* (% inhibition) (human FGF-R1; listed as 41(I)): 66% and 76%
Lck-P* (% inhibition) (LCK tyrosine kinase): 16%
Lck-P* (% inhibition) (LCK tyrosine kinase; listed as 41(I)): 63%* and 38%*
IC50 ([1]; read-out: HUVEC IC50): 0.25 nM
remaining at 2 h, 5 µM (in vitro): 48%
Ki ([2]; FLVK ** (Ki), Table 1): 0.24 nM and 0.04 nM
inhibition at 0.05 µM [2]: 98%

Compound: Cc1cc(C(=O)Nc2cc(C(=O)c3ccc4c(/C=C/c5ccccn5)n[nH]c4c3)ccc2C)n(C(C)C)n1 [Reference Example 41(kk), 6-[3-((1-Isopropyl-3-methyl-1H-pyrazol-5-yl)carboxamido)-4-methylbenzoyl]-3-E-[2-(pyridin-2-yl)ethenyl]-1H-indazole]
inhibition at 1 µM (human FGF-R1): 97%
inhibition at 1 µM (LCK tyrosine kinase): 26%
IC50 [1, 3]: 16 nM
% remain (HLM, 2 h) (in vitro): 63%
inhibition at 0.05 µM [2]: 100%

Compound: O=C(c1cccc(NC(=O)c2ccc(Cl)s2)c1)c1ccc2c(/C=C/c3ccccn3)n[nH]c2c1 [Reference Example 41(o), 6-[3-((5-chlorothien-2-yl)carboxamido)benzoyl]-3-E-[2-(pyridin-2-yl)ethenyl]-1H-indazole]
inhibition at 1 µM (human FGF-R1): 74%
inhibition at 1 µM (LCK tyrosine kinase): 77%
IC50 [1, 3]: 10 nM
% remain (HLM, 2 h) (in vitro): 94%
AUC (in vivo; ip, 25 mg/kg): > 33800 ng·h/mL
